Literature values as cited in publication PMC8875686, “Oral Formulation Based on Irbesartan Nanocrystals Improve Drug Solubility, Absorbability, and Efficacy” (Pharmaceutics, 2022).
≈ marks a conversion by molar mass, not a printed value.

Legend:
[1] = oral administration
[2] = room temperature

| SMILES | average absolute bioavailability (BA) [1] | time of Cmax (peak plasma concentrations) [1] [h] | solubility [2] |
| --- | --- | --- | --- |
| CCCCC1=NC2(CCCC2)C(=O)N1Cc1ccc(-c2ccccc2-c2nnn[nH]2)cc1 [IRB, Irbesartan] | 60–80% | 1.5 to 2 | – |
| CCCCC1=NC2(CCCC2)C(=O)N1Cc1ccc(-c2ccccc2-c2nnn[nH]2)cc1 [form A] | – | – | approximately 0.011 mg/mL |
| CCCCC1=NC2(CCCC2)C(=O)N1Cc1ccc(-c2ccccc2-c2nnn[nH]2)cc1 [form B] | – | – | ~0.6 µg/mL (≈ 1.4 µM) |
